Experimental data as given in ChEMBL document CHEMBL1152560, “Substituted 2-arylbenzothiazoles as kinase inhibitors: hit-to-lead optimization” (Bioorg Med Chem, 2009).

Tests used:
[1] = molecular target: Serine/threonine-protein kinase Chk2 (Homo sapiens) (UniProt O96017); assay: Residual activity of CHK2 at 10 uM by microplate scintillation counting
[2] = molecular target: Protein kinase C theta type (Homo sapiens) (UniProt Q04759); assay: Residual activity of PKCtheta at 0.1 uM by microplate scintillation counting
Sequence of Protein kinase C theta type (Homo sapiens) (Q04759 whole entry, looked up): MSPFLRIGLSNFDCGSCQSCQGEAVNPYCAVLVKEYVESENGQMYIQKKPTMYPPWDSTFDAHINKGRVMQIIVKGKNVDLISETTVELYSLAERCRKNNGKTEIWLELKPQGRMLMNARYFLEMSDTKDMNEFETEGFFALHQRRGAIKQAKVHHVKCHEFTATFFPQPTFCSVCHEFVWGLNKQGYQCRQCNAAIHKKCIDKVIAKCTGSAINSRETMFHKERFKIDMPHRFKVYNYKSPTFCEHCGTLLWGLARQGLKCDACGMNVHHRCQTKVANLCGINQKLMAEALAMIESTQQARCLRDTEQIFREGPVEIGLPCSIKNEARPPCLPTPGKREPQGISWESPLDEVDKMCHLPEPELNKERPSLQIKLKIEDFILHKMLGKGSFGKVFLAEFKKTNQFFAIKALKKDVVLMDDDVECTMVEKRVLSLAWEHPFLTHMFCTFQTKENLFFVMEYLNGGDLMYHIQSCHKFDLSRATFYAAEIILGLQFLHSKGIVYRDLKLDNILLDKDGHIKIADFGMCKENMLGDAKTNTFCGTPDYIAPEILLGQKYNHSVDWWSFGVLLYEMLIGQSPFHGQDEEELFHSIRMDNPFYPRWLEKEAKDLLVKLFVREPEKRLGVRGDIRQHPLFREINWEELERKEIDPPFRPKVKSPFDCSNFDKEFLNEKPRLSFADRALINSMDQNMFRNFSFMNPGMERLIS

[3] = molecular target: T1, Megakaryocyte-associated tyrosine-protein kinase (Homo sapiens) (UniProt P42679); assay: Residual activity of MATK at 1 uM by microplate scintillation counting
T1 sequence (whole entry): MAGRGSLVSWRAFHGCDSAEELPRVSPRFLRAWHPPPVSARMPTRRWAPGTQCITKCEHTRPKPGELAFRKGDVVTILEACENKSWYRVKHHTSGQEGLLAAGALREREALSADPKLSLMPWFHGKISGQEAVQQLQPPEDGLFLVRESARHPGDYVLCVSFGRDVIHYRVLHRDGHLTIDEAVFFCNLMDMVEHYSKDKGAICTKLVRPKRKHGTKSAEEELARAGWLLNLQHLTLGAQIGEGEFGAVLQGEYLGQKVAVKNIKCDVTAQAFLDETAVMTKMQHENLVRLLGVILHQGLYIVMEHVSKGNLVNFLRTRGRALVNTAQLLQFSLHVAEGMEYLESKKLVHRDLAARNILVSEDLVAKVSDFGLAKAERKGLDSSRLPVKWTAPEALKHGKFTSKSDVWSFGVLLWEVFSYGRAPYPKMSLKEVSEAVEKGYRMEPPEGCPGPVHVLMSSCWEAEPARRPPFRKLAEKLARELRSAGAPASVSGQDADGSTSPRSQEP

[4] = molecular target: Vascular endothelial growth factor receptor 2 (Homo sapiens, UniProt P35968); assay: Residual activity of VEGFR2 at 10 uM by microplate scintillation counting
Sequence of Vascular endothelial growth factor receptor 2 (P35968 whole entry): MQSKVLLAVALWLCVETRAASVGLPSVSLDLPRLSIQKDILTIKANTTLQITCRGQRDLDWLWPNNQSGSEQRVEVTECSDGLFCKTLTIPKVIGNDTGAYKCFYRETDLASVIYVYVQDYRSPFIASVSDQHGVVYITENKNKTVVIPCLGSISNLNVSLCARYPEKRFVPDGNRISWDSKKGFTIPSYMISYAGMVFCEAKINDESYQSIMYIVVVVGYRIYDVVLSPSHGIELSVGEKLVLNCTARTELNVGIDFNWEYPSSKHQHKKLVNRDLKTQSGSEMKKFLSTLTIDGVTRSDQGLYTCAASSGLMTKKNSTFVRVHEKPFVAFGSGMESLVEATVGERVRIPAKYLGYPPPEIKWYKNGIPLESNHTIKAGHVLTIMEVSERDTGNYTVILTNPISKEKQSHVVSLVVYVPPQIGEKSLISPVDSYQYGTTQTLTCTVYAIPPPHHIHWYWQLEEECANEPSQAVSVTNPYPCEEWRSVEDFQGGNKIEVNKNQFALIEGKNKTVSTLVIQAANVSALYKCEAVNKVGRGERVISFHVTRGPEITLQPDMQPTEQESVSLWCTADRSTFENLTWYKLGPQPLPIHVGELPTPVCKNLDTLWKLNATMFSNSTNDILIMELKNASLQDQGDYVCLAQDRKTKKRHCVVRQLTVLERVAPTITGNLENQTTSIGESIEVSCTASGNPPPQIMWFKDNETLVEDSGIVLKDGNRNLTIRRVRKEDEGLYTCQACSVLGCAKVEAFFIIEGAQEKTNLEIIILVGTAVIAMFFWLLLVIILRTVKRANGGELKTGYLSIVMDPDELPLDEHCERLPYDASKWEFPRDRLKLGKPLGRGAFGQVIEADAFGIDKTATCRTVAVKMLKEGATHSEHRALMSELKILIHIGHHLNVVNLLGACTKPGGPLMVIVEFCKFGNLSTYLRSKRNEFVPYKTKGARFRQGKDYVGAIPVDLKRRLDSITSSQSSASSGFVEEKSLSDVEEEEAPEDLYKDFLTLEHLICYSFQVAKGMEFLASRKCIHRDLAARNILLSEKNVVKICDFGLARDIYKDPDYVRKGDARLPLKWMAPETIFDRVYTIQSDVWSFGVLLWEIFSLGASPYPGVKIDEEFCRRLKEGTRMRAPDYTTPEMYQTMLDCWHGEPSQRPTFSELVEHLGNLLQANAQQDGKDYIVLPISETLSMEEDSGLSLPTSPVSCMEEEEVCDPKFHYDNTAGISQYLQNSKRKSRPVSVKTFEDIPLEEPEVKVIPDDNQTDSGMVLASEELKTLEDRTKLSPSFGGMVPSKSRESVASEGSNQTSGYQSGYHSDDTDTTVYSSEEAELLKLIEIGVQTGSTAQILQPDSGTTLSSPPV

[5] = molecular target: Ribosomal protein S6 kinase alpha-3 (Homo sapiens) (UniProt P51812); assay: Residual activity of RPS6KA3 at 1 uM by microplate scintillation counting
Sequence of Ribosomal protein S6 kinase alpha-3 (Homo sapiens) (P51812 whole entry): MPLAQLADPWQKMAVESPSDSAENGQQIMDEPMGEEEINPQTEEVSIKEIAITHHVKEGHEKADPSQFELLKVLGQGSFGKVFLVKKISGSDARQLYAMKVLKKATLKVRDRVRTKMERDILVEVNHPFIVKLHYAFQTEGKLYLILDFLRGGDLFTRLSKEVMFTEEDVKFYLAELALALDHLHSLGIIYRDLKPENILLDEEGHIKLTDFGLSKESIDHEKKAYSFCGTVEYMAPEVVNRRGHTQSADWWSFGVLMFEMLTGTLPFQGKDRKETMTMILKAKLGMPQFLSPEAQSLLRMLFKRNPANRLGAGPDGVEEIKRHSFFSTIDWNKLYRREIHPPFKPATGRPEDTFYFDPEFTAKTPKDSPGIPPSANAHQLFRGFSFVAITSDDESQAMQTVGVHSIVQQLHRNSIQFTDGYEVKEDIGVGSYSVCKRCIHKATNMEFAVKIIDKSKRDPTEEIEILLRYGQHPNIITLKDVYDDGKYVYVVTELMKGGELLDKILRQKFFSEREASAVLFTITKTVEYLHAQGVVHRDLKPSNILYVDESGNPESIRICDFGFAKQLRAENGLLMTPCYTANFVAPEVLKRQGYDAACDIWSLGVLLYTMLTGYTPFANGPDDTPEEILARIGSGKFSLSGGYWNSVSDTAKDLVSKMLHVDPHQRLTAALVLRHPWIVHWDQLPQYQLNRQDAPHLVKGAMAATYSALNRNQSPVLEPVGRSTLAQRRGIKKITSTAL

[6] = molecular target: Serine/threonine-protein kinase PLK3 (Homo sapiens) (UniProt Q9H4B4); assay: Residual activity of PLK3 at 1 uM by microplate scintillation counting
Sequence of Serine/threonine-protein kinase PLK3 (Homo sapiens) (Q9H4B4 whole entry, looked up): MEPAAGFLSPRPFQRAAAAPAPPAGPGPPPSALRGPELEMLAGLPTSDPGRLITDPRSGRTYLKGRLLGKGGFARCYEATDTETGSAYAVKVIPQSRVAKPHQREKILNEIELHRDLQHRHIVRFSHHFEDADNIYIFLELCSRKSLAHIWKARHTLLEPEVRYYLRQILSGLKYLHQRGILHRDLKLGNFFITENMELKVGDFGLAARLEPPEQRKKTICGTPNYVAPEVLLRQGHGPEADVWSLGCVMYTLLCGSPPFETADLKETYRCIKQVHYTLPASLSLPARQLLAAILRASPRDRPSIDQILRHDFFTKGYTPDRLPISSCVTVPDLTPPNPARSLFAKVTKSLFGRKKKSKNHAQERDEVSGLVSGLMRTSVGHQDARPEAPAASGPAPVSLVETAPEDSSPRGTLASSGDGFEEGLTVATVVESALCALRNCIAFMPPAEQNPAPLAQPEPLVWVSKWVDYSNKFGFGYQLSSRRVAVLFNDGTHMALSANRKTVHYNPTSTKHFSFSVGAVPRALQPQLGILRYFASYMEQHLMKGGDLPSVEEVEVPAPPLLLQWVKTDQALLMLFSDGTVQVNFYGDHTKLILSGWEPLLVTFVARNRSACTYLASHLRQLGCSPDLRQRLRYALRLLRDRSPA

[7] = Residual activity of S6K at 0.1 uM by microplate scintillation counting
[8] = molecular target: T2, Serine/threonine-protein kinase D3 (Homo sapiens) (UniProt O94806); assay: Residual activity of PKCnu at 10 uM by microplate scintillation counting
T2 sequence (whole entry): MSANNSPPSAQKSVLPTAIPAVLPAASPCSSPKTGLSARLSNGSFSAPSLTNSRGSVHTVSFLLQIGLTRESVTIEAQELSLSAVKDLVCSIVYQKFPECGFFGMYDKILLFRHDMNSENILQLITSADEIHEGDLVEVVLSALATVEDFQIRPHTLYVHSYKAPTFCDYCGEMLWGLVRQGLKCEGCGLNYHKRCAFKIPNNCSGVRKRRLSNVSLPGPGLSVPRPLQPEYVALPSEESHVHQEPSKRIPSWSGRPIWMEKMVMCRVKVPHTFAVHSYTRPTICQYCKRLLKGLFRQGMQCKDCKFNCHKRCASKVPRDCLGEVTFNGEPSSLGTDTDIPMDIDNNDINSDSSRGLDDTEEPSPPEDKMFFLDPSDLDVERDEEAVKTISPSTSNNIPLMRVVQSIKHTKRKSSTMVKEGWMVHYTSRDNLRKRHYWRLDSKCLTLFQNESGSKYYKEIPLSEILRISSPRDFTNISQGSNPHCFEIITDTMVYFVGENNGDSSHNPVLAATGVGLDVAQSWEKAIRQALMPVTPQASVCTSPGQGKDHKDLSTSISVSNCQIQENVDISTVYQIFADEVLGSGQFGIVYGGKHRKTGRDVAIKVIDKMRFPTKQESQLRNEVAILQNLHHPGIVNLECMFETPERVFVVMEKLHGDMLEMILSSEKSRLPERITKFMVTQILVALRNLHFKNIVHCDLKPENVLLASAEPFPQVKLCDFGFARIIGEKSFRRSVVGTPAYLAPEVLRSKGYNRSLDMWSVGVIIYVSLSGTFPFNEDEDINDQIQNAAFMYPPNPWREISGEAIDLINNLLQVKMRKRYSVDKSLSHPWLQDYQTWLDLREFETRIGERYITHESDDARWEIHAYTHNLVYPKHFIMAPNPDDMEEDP

[9] = molecular target: RAC-beta serine/threonine-protein kinase (Homo sapiens) (UniProt P31751); assay: Residual activity of AKT2 at 1 uM by microplate scintillation counting
Sequence of RAC-beta serine/threonine-protein kinase (Homo sapiens) (P31751 whole entry): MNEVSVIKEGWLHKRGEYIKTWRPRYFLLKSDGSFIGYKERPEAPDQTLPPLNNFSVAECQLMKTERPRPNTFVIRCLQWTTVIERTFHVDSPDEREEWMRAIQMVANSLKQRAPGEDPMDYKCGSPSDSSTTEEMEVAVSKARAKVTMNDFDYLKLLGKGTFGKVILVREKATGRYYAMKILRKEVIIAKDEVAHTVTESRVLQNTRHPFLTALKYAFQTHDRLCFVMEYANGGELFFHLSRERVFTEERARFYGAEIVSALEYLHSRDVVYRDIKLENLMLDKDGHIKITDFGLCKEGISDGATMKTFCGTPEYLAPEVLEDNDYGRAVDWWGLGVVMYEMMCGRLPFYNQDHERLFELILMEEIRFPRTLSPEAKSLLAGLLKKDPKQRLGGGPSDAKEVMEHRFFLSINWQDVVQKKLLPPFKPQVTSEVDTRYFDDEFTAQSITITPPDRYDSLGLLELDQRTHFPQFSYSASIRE

[10] = molecular target: T3, Tyrosine-protein kinase Mer (Homo sapiens) (UniProt Q12866); assay: Residual activity of MERTK at 1 uM by microplate scintillation counting
T3 sequence (whole entry): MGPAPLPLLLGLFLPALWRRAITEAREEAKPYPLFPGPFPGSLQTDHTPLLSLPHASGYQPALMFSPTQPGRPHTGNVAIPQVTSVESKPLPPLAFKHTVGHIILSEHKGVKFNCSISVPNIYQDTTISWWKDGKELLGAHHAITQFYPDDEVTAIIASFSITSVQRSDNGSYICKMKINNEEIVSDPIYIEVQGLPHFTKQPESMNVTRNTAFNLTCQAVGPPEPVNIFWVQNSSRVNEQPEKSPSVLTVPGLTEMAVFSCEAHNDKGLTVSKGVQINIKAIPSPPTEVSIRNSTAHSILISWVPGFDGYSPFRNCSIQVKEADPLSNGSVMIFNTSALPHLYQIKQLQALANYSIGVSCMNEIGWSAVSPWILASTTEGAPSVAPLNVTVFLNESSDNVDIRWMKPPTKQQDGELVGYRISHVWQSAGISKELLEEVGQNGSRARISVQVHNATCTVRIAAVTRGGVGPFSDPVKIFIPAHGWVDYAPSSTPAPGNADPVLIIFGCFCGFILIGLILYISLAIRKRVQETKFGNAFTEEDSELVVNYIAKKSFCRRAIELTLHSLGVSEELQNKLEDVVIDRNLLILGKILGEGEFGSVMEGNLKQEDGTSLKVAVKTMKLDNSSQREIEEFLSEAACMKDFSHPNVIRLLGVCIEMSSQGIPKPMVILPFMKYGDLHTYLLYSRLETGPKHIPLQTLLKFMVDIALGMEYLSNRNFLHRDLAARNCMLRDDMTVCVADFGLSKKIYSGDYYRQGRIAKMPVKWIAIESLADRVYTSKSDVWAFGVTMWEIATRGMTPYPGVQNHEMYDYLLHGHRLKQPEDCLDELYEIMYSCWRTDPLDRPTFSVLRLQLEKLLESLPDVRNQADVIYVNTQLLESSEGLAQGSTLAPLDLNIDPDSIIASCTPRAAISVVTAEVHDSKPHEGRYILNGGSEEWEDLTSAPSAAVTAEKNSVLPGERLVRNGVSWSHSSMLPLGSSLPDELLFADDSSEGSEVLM

Sequence of Serine/threonine-protein kinase Chk2 (Homo sapiens) (O96017 whole entry): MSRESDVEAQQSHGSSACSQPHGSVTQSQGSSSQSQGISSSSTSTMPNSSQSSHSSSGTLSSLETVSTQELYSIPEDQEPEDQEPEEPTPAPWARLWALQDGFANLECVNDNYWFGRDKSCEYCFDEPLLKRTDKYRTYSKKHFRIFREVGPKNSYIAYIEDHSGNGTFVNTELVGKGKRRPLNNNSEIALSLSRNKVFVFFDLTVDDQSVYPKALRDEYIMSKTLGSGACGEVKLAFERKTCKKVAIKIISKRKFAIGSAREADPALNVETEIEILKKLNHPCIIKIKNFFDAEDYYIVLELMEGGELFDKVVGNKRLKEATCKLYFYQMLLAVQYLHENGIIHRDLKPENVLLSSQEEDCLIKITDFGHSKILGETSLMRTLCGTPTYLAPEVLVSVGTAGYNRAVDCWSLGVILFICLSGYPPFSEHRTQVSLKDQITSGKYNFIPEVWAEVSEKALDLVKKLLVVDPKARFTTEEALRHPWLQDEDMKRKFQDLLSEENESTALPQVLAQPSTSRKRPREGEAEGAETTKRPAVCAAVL

residual activity [1] [%] | residual activity [2] [%] | residual activity [3] [%] | residual activity [4] [%] | residual activity [5] [%] | residual activity [6] [%] | residual activity [7] [%] | residual activity [8] [%] | residual activity [9] [%] | residual activity [10] [%] | Structure (SMILES)
17 | 95 | 235 | 5 | 93 | 101 | 90 | 82 | 91 | 11 | COc1cc2c(Oc3ccc(-c4nc5ccccc5s4)cc3)ncnc2cc1OCCCN1CCCC1
11 | 100 | 141 | 6 | 85 | 100 | 85 | 52 | 83 | 16 | COc1cc2c(Oc3ccc(-c4nc5ccccc5s4)cc3)ncnc2cc1OCCCN1CCN(C)CC1
9 | 95 | 162 | 5 | 95 | 94 | 87 | 50 | 113 | 19 | COc1cc2c(Oc3ccc(-c4nc5ccccc5s4)cc3F)ncnc2cc1OCCCN1CCN(C)CC1
